Assay results from publication doi:10.1101/2025.09.24.678246 (bioRxiv, 2025).
Converted amounts (≈) assume the structure as drawn. “And” between values parts separate entries of the source, which are not always exact repeats. Identical values can stand only once. Like-named read-outs stand apart in the source and are kept apart here.

Key:
BioA = BioA (Mycobacterium tuberculosis, UniProt P9WQ81); test: BioA inhibition assay (coupled BioA/BioD fluorescence displacement, IC50); type: biochemical
Mtb H37Rv [1] = test: Supplementation experiments in Mtb (KAPA, DAPA, DTB, biotin); type: cell-based, Mycobacterium tuberculosis
WT H37Rv = test: Time-kill kinetics in GAST medium; type: cell-based, Mycobacterium tuberculosis; conditions: for OD580 of C48 kill kinetics: 10µM C48, GAST medium
M. bovis 0AF2122 = test: microbe, parasite or virus in culture; type: cell-based; conditions: Mycobacterium tuberculosis variant bovis
M. africanum = test: MIC screening against M. africanum; type: cell-based; conditions: Mycobacterium tuberculosis, MTBC
S. aureus = test: MIC screening: S. aureus; type: cell-based
Excerpt: Supplement media-1.docx, table 4: Supplemental Table S4. MIC screening of C48 against a panel of pathogens and strains | column: C48 MIC (µM)^b

Mtb = test: Membrane fluidity measurements (laurdan GP); type: cell-based, Mycobacterium tuberculosis; conditions: 150 nM
Mtb H37Rv [2] = type: in vivo, BALB/c mice; conditions: for spleen CFU: Day 42, standard acute model, BALB/c, per mouse
Mtb H37Rv [3] = test: C48 biotin deficient TB efficacy study; type: in vivo, BALB/c mice; conditions: for bacterial burden per mouse, Fig. 5C / bacterial burden per mouse, Fig. 5D (second organ, not given): 200mg/kg
[4] = p.o. 25 mg/kg, CD-1 mice
[5] = p.o.; for C48 in Plasma / C48 in lung: CD-1 mice
HT-29 = conditions: 48 h; for Growth compared to DMSO control (%): HT-29 cell
in vivo = conditions: female, CD-1, mouse
E. faecium ATCC 19434 = test: MIC screening: E. faecium
Procedure: (§1) MIC measurements were based on a method previously described[6]. Overnight liquid cultures of E. coli BW, E. coli C0244, A. baumannii ATCC 17978, K. pneumoniae ATCC 43816, P. aeruginosa PA01 and E. faecium ATCC 19434 strains were inoculated with a single colony from a freshly streaked agar plate of the corresponding bacterial strain and cultured in M9 minimal medium supplemented with amino acids[6]. The bacterial culture was prepared by washing 1 mL of overnight culture in PBS pH 7.4 (x3), then diluted to OD600 = 0.5 and used to inoculate 1:1000 in M9 minimal medium with amino acids in 96-well plates. Compounds were added to 96-well plates in two-fold serial dilutions. The plates were incubated stationary at 37 °C for 18 h, then OD600 was measured. […] The assay was performed in duplicate.

A. baumannii ATCC 17978 = test: MIC screening against Gram-negative pathogens: A. baumannii
Procedure: as §1

K. pneumoniae ATCC 43816 = test: MIC screening against Gram-negative pathogens: K. pneumoniae
Procedure: as §1

P. aeruginosa PA01 = test: MIC screening against Gram-negative pathogens: P. aeruginosa
Procedure: as §1

[6] = 200 mg/kg p.o. once daily, three weeks, biotin-deficient BALB/c
[7] = day 7 (values identical to Control: baseline)

BioA, sequence (P9WQ81 whole entry, looked up): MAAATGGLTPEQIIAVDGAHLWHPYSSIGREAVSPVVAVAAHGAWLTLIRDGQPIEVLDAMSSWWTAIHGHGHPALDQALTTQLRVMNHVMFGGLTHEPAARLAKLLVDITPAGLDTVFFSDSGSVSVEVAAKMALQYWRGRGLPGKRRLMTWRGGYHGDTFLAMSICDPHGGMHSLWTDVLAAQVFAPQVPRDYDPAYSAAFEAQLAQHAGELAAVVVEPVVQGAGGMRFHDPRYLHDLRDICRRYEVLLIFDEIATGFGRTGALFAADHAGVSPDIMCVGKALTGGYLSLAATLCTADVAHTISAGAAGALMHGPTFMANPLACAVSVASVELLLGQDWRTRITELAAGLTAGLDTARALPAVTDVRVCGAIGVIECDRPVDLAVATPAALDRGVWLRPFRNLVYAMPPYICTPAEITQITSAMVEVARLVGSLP

## O=C1CCc2cc(N3CCN(C(=O)c4ccc(F)c(Br)c4)CC3)ncc21 [C48]
BioA; 50 nM BioA
  IC50: 34 nM
BioA; C48 2.60123 nM, 50 nM BioA
  activity: 100% and 105%
  activity at 0.00260123 µM: 99.5%
BioA; C48 3.90184 nM, 50 nM BioA
  activity: 98% and 101%
  activity at 0.00390184 µM: 95.4%
BioA; C48 5.85277 nM, 50 nM BioA
  activity: 98.6% and 97%
  activity at 0.00585277 µM: 96.2%
BioA; C48 8.77915 nM, 50 nM BioA
  activity: 94.6% and 97.2%
  activity at 0.00877915 µM: 94%
BioA; C48 13.1687 nM, 50 nM BioA
  activity: 90.9% and 91.4%
  activity at 0.0131687 µM: 90.4%
BioA; C48 19.7531 nM, 50 nM BioA
  activity: 81.3% and 85.6%
  activity at 0.0197531 µM: 80.3%
BioA; C48 29.6296 nM, 50 nM BioA
  activity: 64.4% and 66.5%
  activity at 0.0296296 µM: 63.7%
BioA; C48 44.4444 nM, 50 nM BioA
  activity: 19.1% and 25.7%
  activity at 0.0444444 µM: 20.9%
BioA; C48 66.6667 nM, 50 nM BioA
  activity: 0.926% and 1.11%
  activity at 0.0666667 µM: 1.35%
BioA; read-out: Vi/Vo %
  remaining activity at 0.00114183 µM: 103%
  remaining activity at 0.00171274 µM: 106%
  remaining activity at 0.00256912 µM: 106%
  remaining activity at 0.00385367 µM: 97%
  remaining activity at 0.00578051 µM: 96.5%
  remaining activity at 0.00867076 µM: 89.3%
  remaining activity at 0.0130061 µM: 88.9%
  remaining activity at 0.0195092 µM: 78.8%
  remaining activity at 0.0292638 µM: 60.8%
  remaining activity at 0.0438957 µM: 42%
  remaining activity at 0.0658436 µM: 0%
  remaining activity at 0.0987654 µM: 0%
  remaining activity at 0.148148 µM: 0%
  remaining activity at 0.222222 µM: 0%
  remaining activity at 0.333333 µM: 0%
Mtb H37Rv [1]; 40 nM biotin
  activity against Mtb cultured with 40 nM biotin: minimal activity
Mtb H37Rv [1]; 2 μM biotin, GAST
  growth inhibitory effect with biotin supplementation: antagonized
Mtb H37Rv [1]; 50 μM DAPA, GAST
  growth inhibitory effect with DAPA supplementation: antagonized
Mtb H37Rv [1]; 50 μM DTB, GAST
  growth inhibitory effect with desthiobiotin (DTB) supplementation: antagonized
Mtb H37Rv [1]; 50 μM KAPA, GAST
  growth inhibitory effect with KAPA supplementation: not
WT H37Rv; 10 μM, biotin-free medium, after about three doublings
  rate of CFU decline: one log10 CFU per week
WT H37Rv; day 0
  OD580 of C48 kill kinetics: 0.001
WT H37Rv; day 2
  OD580 of C48 kill kinetics: 0.004
WT H37Rv; day 4
  OD580 of C48 kill kinetics: 0.008
WT H37Rv; day 8
  OD580 of C48 kill kinetics: 0.01
WT H37Rv; day 11
  OD580 of C48 kill kinetics: 0.016
WT H37Rv; day 14
  OD580 of C48 kill kinetics: 0.012
WT H37Rv; day 16
  OD580 of C48 kill kinetics: 0.012
WT H37Rv; day 18
  OD580 of C48 kill kinetics: 0.012
WT H37Rv; day 21
  OD580 of C48 kill kinetics: 0.01
WT H37Rv; day 23
  OD580 of C48 kill kinetics: 0.01
WT H37Rv; day 25
  OD580 of C48 kill kinetics: 0.01
WT H37Rv; day 28
  OD580 of C48 kill kinetics: 0.008
WT H37Rv; day 32
  OD580 of C48 kill kinetics: 0.008
WT H37Rv; day 35
  OD580 of C48 kill kinetics: 0.008
WT H37Rv; day 39
  OD580 of C48 kill kinetics: 0.008
WT H37Rv; day 42
  OD580 of C48 kill kinetics: 0.008
WT H37Rv; day 46
  OD580 of C48 kill kinetics: 0.008
WT H37Rv; day 49
  OD580 of C48 kill kinetics: 0.008
WT H37Rv; day 53
  OD580 of C48 kill kinetics: 0.008
WT H37Rv; day 56
  OD580 of C48 kill kinetics: 0.008
WT H37Rv; day 60
  OD580 of C48 kill kinetics: 0.008
WT H37Rv; day 63
  OD580 of C48 kill kinetics: 0.008
WT H37Rv; day 67
  OD580 of C48 kill kinetics: 0.008
M. bovis 0AF2122
  MIC: 0.0313 µM (≈ 13.1 ng/mL)
M. africanum
  MIC: 0.012 µM (≈ 5.02 ng/mL)
S. aureus
  MIC: inactive
Mtb; +Biotin
  Laurdan GP: 0.2273 and 0.2244 and 0.2183
Mtb; -Biotin
  Laurdan GP: 0.2797 and 0.2817 and 0.2774
Mtb; without biotin
  laurdan GP change: increase
Mtb H37Rv [2]; 100mg/kg C48 p.o.
  spleen CFU: 1075 CFU and 3750 CFU and 6400 CFU and 18666.7 CFU and 6650 CFU and 6725 CFU
Mtb H37Rv [2]; 100 mg/kg, day 14 (values identical to Vehicle Control: baseline)
  bacterial burden per mouse, Fig. 5B: 16500 and 43500 and 12750 and 24500 and 14500
Mtb H37Rv [2]; 100 mg/kg, day 28
  bacterial burden per mouse, Fig. 5B: 170000
Mtb H37Rv [2]; 100 mg/kg, day 42
  bacterial burden per mouse, Fig. 5B: 325000 and 425000 and 1800000 and 566667 and 170000 and 673000
Mtb H37Rv [2]; 200mg/kg C48 p.o.
  spleen CFU: 7225 CFU and 14500 CFU and 8975 CFU and 12750 CFU and 18750 CFU and 7075 CFU
Mtb H37Rv [2]; 200 mg/kg, day 14 (values identical to Vehicle Control: baseline)
  bacterial burden per mouse, Fig. 5B: 16500 and 43500 and 12750 and 24500 and 14500
Mtb H37Rv [2]; 200 mg/kg, day 42
  bacterial burden per mouse, Fig. 5B: 552500 and 365000 and 477500 and 437500 and 560000 and 517500
Mtb H37Rv [2]; 100 and 200 mg/kg p.o.
  efficacy in the conventional mouse model of TB: failed to show efficacy
Mtb H37Rv [3]; [6]
  reduction of bacterial burden in lungs: 1.0 log10 CFU
  reduction of bacterial burden in spleen: 2.1 log10 CFU
Mtb H37Rv [3]; [7]
  bacterial burden per mouse, Fig. 5C: 700 and 200 and 360 and 1090 and 400 and 320
  bacterial burden per mouse, Fig. 5D (second organ, not given): 1
Mtb H37Rv [3]; day 21
  bacterial burden per mouse, Fig. 5C: 88000 and 30000 and 12000 and 11000 and 133000 and 32000
  bacterial burden per mouse, Fig. 5D (second organ, not given): 90 and 1 (3×) and 20 and 70
Mtb H37Rv [3]; day 28
  bacterial burden per mouse, Fig. 5C: 9700 and 74000 and 49000 and 29000 and 48000 (2×) and 36000
  bacterial burden per mouse, Fig. 5D (second organ, not given): 20 and 6700 and 30 and 170 and 790 and 10 and 180
[4]; 0 h
  plasma concentration: 0
[4]; 0.5 h, 25 mg/kg
  plasma concentration: 10400 and 11300 and 10800
[4]; 1 h, 25 mg/kg
  plasma concentration: 15700 and 11100 and 13300
[4]; 3 h, 25 mg/kg
  plasma concentration: 12000 and 11100 and 12600
[4]; 5 h, 25 mg/kg
  plasma concentration: 14500 and 12000 and 8860
[4]; 7 h, 25 mg/kg
  plasma concentration: 9480 and 6360 and 8380
50 mg/kg p.o. for 4 days, 1 hr
  plasma concentration, dose escalation: 61800 and 52800 and 56400
50 mg/kg p.o. for 4 days, 24 hr
  plasma concentration, dose escalation: 12.4 and 12.1 and 9.65
100 mg/kg p.o. for 4 days, 0 hr
  plasma concentration, dose escalation: 14 and 10 and 13
100 mg/kg p.o. for 4 days, 1 hr
  plasma concentration, dose escalation: 112000 and 72300 and 72800
200 mg/kg p.o. for 4 days, 0 hr
  plasma concentration, dose escalation: 16 and 17 and 26
200 mg/kg p.o. for 4 days, 1 hr
  plasma concentration, dose escalation: 74500 and 50900 and 86400
200 mg/kg p.o. for 4 days, 5 hr
  plasma concentration, dose escalation: 57700 and 39600 and 50300
p.o. 50-200 mg/kg for 4 days
  tolerability in dose escalation: well tolerated
p.o. up to 200 mg/kg
  oral absorption in dose escalation: linear oral absorption
[5]
  delivery into the lungs: efficiently delivered into the lungs
[5]; 0 hr
  C48 in Plasma: 0 ng/mL
  C48 in lung: 0 ng/mL
[5]; 1 hr
  C48 in Plasma: 17400 ng/mL and 12000 ng/mL and 17900 ng/mL
  C48 in lung: 11264.6 ng/mL and 8012.8 ng/mL and 9904.4 ng/mL
[5]; 3 hr
  C48 in Plasma: 7710 ng/mL and 11800 ng/mL and 12100 ng/mL
  C48 in lung: 3273.1 ng/mL and 5600.4 ng/mL and 5866.1 ng/mL
HT-29; 3.13 μM
  Growth compared to DMSO control (%): 103.339% and 102.14% and 102.153%
HT-29; 6.25 μM
  Growth compared to DMSO control (%): 105.34% and 100.609% and 100.571%
HT-29; 12.5 μM
  Growth compared to DMSO control (%): 103.832% and 99.2439% and 99.2304%
HT-29; 25 μM
  Growth compared to DMSO control (%): 102.371% and 98.4085% and 97.2044%
HT-29; 50 μM
  Growth compared to DMSO control (%): 101.665% and 97.1295% and 96.4305%
HT-29; 100 μM
  Growth compared to DMSO control (%): 100.396% and 97.8669% and 97.7498%
HT-29; concentrations up to 100 μM
  cytotoxicity toward HT-29: no cytotoxicity
In vivo
  half-life: 54.6 min
In vivo; iv
  Vd: 0.26 L/kg
  clearance: 3.2 mL/min/kg
  half-life: 54.6 min
In vivo; po, 25 mg/kg
  AUC(0-inf): 146 µg·h/mL
  bioavailability: > 100%
E. faecium ATCC 19434
  MIC: inactive
A. baumannii ATCC 17978
  MIC: inactive
K. pneumoniae ATCC 43816
  MIC: inactive
P. aeruginosa PA01
  MIC: inactive
